Test results: PubChem BioAssay (NCI)
Values joined by “and” are separate entries in the source; they are usually repeats but may differ in a detail not shown here. Identical values can stand only once.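 These data come from cells grown in 96-well plates and exposed to compound for 48 hours at five concentrations. The concentration for 50% growth inhibition is given as GI50. The concentration for full growth arrest is given as TGI.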

What was measured:
Experiment in all cases: inhibition of tumour cell growth, NCI panel, 48 h
786-0 renal = system: 786-0 renal
MALME-3M melanoma = system: MALME-3M melanoma
RXF 393 renal = system: RXF 393 renal
NCI-H460 lung = system: NCI-H460 lung
NCI-H522 lung = system: NCI-H522 lung
NCI-H23 lung = system: NCI-H23 lung
MDA-MB-231 breast = system: MDA-MB-231 breast
SF-295 CNS = system: SF-295 CNS
U251 CNS = system: U251 CNS
RPMI-8226 leukemia = system: RPMI-8226 leukemia

Compound | GI50 (786-0 renal) | TGI (786-0 renal) | GI50 (MALME-3M melanoma) | TGI (MALME-3M melanoma) | GI50 (RXF 393 renal) | TGI (RXF 393 renal) | GI50 (NCI-H460 lung) | TGI (NCI-H460 lung) | GI50 (NCI-H522 lung) | TGI (NCI-H522 lung) | GI50 (NCI-H23 lung) | TGI (NCI-H23 lung) | GI50 (MDA-MB-231 breast) | TGI (MDA-MB-231 breast) | GI50 (SF-295 CNS) | TGI (SF-295 CNS) | GI50 (U251 CNS) | TGI (U251 CNS) | GI50 (RPMI-8226 leukemia) | TGI (RPMI-8226 leukemia)
O=C1/C(=C/c2ccc(F)cc2)CN(Cc2cn(CCNc3ccnc4cc(Cl)ccc34)nn2)C/C1=C\c1ccc(F)cc1 | 1.66 µM | 3.04 µM | 1.98 µM | 3.76 µM | 1.66 µM | 3.11 µM | 1.18 µM | 2.57 µM | 1.67 µM | 3.16 µM | 1.84 µM | 4.01 µM | 1.76 µM | 3.41 µM | 1.94 µM | 3.65 µM | 1.33 µM | 2.68 µM | 0.299 µM | 0.896 µM
NS(=O)(=O)OC[C@H]1O[C@@H](n2cnc3c(N[C@H]4CCc5ccccc54)ncnc32)[C@H](O)[C@@H]1O | 0.0799 µM | 0.373 µM | 0.195 µM | 0.447 µM | 0.258 µM | 0.506 µM | 0.408 µM | 2.11 µM | 0.0271 µM | 0.192 µM | 0.185 µM | 1.26 µM | 0.47 µM | 2.92 µM | 0.387 µM | 1.94 µM | 0.0353 µM | 0.121 µM | 3.36 µM | 28.1 µM
CCCCCc1c(C)[nH]c(/C=C2\N=C(c3ccc[nH]3)C=C2Oc2ccc(OC)cc2)c1C | 0.141 µM and 0.0404 µM | 0.328 µM and 0.315 µM | 0.262 µM and 0.0744 µM | 1.34 µM and 0.261 µM | 0.12 µM and 0.0294 µM | 0.567 µM and 0.244 µM | 0.085 µM and 0.038 µM | 1.17 µM | 0.0135 µM | 0.19 µM | 0.258 µM and 0.0806 µM | 2.84 µM and 1.55 µM | 0.0833 µM and 0.0117 µM | – | 0.18 µM and 0.0775 µM | 0.735 µM and 0.437 µM | 0.0811 µM and 0.026 µM | – | 0.0896 µM and 0.0313 µM | 1.13 µM and 0.332 µM
O=C1CCc2cc([N+](=O)[O-])ccc2O1 | – | > 100 µM | – | > 100 µM | – | > 100 µM | – | > 100 µM | – | > 100 µM | – | > 100 µM | – | > 100 µM | – | > 100 µM | – | > 100 µM | – | > 100 µM
Oc1ccc(Br)cc1CN1CCN(Cc2ccc(Cl)cc2)CC1 | 21.2 µM | 80.9 µM | 14.7 µM | 45.8 µM | 17.3 µM | 80 µM | 25.7 µM | > 100 µM | 13.3 µM | 39.2 µM | 16.5 µM | > 100 µM | 17 µM | 59.4 µM | 18.6 µM | > 100 µM | 27.7 µM | > 100 µM | 14.4 µM | > 100 µM
COc1ccc(CNCCN2C(=O)c3ccc4c5c(ccc(c35)C2=O)C(=O)N(CCNCc2ccc(OC)cc2)C4=O)cc1 | 1.17 µM | 2.49 µM | 0.123 µM | 0.269 µM | 0.225 µM | 0.981 µM | 0.25 µM | 0.943 µM | 0.413 µM | 1.92 µM | 0.206 µM | 0.494 µM | 0.294 µM | 1.13 µM | 0.418 µM | 1.83 µM | 0.199 µM | 0.48 µM | 0.487 µM | 3.14 µM
CN1CCN(c2nc(C3=C(c4c[nH]c5ccccc45)C(=O)NC3=O)c3ccccc3n2)CC1 | 15.7 µM and 18.3 µM | 39.6 µM and 36.9 µM | 10 µM and 10.2 µM | 19.9 µM and 24.3 µM | 12.8 µM and 16.3 µM | 22.6 µM and 31.2 µM | 15.2 µM and 19.2 µM | 33.4 µM and 35.9 µM | 11.3 µM and 15.1 µM | 23.7 µM and 32.9 µM | 14.8 µM and 17.6 µM | 39.9 µM and 41.4 µM | 22.2 µM and 17.3 µM | 60.6 µM and 39.4 µM | 12.2 µM and 19.6 µM | 25.9 µM and 37.8 µM | 22.5 µM and 13.4 µM | 65 µM and 27.7 µM | 12.6 µM | 37.6 µM
COc1ccc(-n2cc(-c3ccc(Cl)cc3)[nH]c2=S)cc1Cl | 20 µM | 41.4 µM | > 100 µM | > 100 µM | 25.6 µM | 54.1 µM | 50.5 µM | > 100 µM | 59.4 µM | > 100 µM | 84.4 µM | > 100 µM | 22.1 µM | 82.2 µM | 22 µM | 57.7 µM | 32.3 µM | > 100 µM | 55.3 µM | > 100 µM
COc1cc(C2C3=C(COC3=O)N(CCO)c3cc4c(cc32)OCCO4)cc(OC)c1O (stereo not drawn) | 7.03 µM | > 50 µM | 1.23 µM | > 50 µM | 0.971 µM | > 50 µM | 1.75 µM | > 28.5 µM | 0.182 µM | 2.8 µM | 2.46 µM | > 50 µM | 4.41 µM | > 50 µM | 1.22 µM | 4.12 µM | 2 µM | > 50 µM | 2.18 µM | > 50 µM
CC([C@H]1CCC2C3CCC4C(=O)C(NC=O)=CC[C@]4(C)C3CC[C@@]21C)N(C)C (stereo partly drawn) | 2.48 µM | 7.76 µM | 2.34 µM | 5.96 µM | 4.66 µM | 16.6 µM | 2.15 µM | 5.49 µM | 8.2 µM | > 31.2 µM | 4.42 µM | 18.7 µM | 2.36 µM | 7.07 µM | 2.11 µM | 5.67 µM | 3.43 µM | 15.2 µM | 2.75 µM | 18 µM
O=C(O)CSc1ccn(Cc2ccccc2)c1 | – | > 100 µM | – | > 100 µM | – | > 100 µM | – | > 100 µM | – | > 100 µM | – | > 100 µM | – | > 100 µM | – | > 100 µM | – | > 100 µM | – | > 100 µM
